Results from article PMC9130233, “An inhibitor of RORγ for chronic pulmonary obstructive disease treatment” (Scientific Reports, 2022).
pIC50: −log10 of the molar value.

Key:
GABA Cl = assay: Cerep panel, GABA Cl
Excerpt: (§1) Based on the homology of the ligand binding domains, 3 different isoforms of ROR (hRORα, hRORβ and hRORγ) are reported. Small variations in the LBD regions possibly lead to differences in competitive binding between the nuclear receptors of the ROR isoforms (Fig. 1b). Similar to the assessment of RORγ binding assay, TR-FRET binding assays were also used to assess the affinity of PCCR-1 for other ROR isoforms. […] This was reconfirmed in cellular functional assays for the selected isoforms and nuclear receptors using Gal4 DBD with luciferase reporter system from Indigo (PA, USA). […] In addition, both cellular agonist and antagonist effects as well as for enzyme activity were evaluated with a known reference compound for each target, using a radiolabeled method (Eurofins Cerep, France, Table 1).

human RORγt = target: T1, human RORγt (Homo sapiens, UniProt P51449); assay: RORγ transactivation assay in transfected HEK293 cells; type: cell-based; settings: HEK293, n = 4; read-out: potency, inhibition of human RORγt in transactivation assay
T1 construct: Gal4-DBD human RORγt hinge LBD/pcDNA 3.1; expressed in transfected cells; host or cells: HEK293
Method: For RORg transactivation assay the HEK293 cells were seeded in 100 mm dish and transfected with 4.5 µg total DNA (2.25 µg of pGL4.31 Luc2/GAL4-UAS hygro and 2.25 µg Gal4-DBD human RORγt hinge LBD/pcDNA 3.1 and 0.112 µg of pRL-CMV using Effectene transfection reagent (Qiagen). After 16–20 h post transfection, cells were reseeded at the density of 0.05 M cells per well of 96 well plate in DMEM high glucose containing 2% charcoal stripped serum. 4–6 h post seeding, PCCR-1 treatment was given for 24 h, followed by cells lysis with 1X Passive Lysis buffer of Dual luciferase kit (Promega). The signal was detected after addition of stop and glo reagent of the kit in luminescence mode.

[1] = system: total leukocytes, neutrophils and macrophages in BAL fluid of cigarette smoke exposed mice; assay: Acute cigarette smoke induced pulmonary inflammation mice model; type: in vivo, mouse
Excerpt: Cigarette smoke exposure for 7 days caused significant increase in the total cell count in BAL fluid, including leukocytes, neutrophils and macrophages as compared to an air exposed control group.
Male C57BL/6 mice aged 8–10 weeks were obtained from the animal facility of Glenmark Pharmaceuticals Ltd. All animal experiments were approved by IAEC (institutional Animal Ethics Committee) as per the guideline set up by The Committee for the Purpose of Control and Supervision of Experiments on Animals (CPCSEA), India (CPCSEA is a statutory Committee of Department of Animal Husbandry and Dairying (DAHD), Ministry of Fisheries, Animal Husbandry and Dairying (MoFAH&D), India and constituted under the Prevention of Cruelty to Animals (PCA) Act, 1960., India). All animal experiments and procedures were performed in accordance with CPCSEA and IAEC guidelines and regulations (Registration number 231/2000/CPCSEA).In addition to that, all animal experimentation complies with the guidelines of Animal Research: Reporting In Vivo Experiments (ARRIVE). Male C57BL/6 mice were exposed to either room air or cigarette smoke (CS) from 10 cigarettes (Kentucky Research Cigarettes 3R4F) for 50 min, twice daily for 7 days in a whole body box exposure system (SIU24, ProMech Lab Holding AB, Sweden). […] All aspirates of BAL were pooled and total number of cells were determined using a hemocytometer. […]

NK3 = system: T2, NK3; assay: Cerep panel, NK3
T2 construct: Eurofins Cerep
Excerpt: as §1

LXRα = system: T3, LXRα; assay: TR-FRET selectivity binding assay, LXRα
T3 construct: purchased Invitrogen
Excerpt: as §1
For selectivity, the ROR isoforms RORα, FXR, LXRα, LXRβ, RXR, RARα were incubated with compound for 60 min at 22 °C followed by detection mix containing respective agonist (All trans retinoic acid for RARα, T0901317 for LXRα, LXRβ, 9-cis Retinoic acid for RXR, GW-4064 for FXR) and coactivator peptide (FD22 for RORα, PGC1α for RXR, RARα, TRAP220 for LXRα, LXRβ, SRC2-2 for FXR) and Tb-anti GST antibody prepared in assay buffer were added into a 384-well white plate. Reading taken after overnight incubation and the data analysis done as per the protocol mentioned in RORγt-LBD and co-activator ligand binding assay.

T1 sequence (P51449 97-518): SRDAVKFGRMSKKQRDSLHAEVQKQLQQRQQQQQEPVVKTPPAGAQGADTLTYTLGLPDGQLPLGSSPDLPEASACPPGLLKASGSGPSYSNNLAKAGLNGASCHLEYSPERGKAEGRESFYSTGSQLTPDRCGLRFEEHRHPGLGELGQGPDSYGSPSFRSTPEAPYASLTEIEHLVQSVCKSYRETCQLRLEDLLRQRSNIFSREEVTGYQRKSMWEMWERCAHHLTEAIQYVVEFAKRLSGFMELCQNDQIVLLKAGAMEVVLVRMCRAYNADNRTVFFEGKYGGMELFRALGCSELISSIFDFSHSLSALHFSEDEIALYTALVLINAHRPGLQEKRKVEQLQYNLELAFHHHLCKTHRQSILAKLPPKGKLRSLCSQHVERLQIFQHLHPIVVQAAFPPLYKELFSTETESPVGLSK

CCn1c(C(C)(C)Oc2ccc(F)cc2F)nc2cc(NC(=O)Cc3ccc(S(=O)(=O)CC)cc3)ccc21 [PCCR-1]
pIC50 (GABA Cl): 5.32
pIC50 (human RORγt): 6.95
inhibition of total leukocytes in BAL fluid ([1]; intranasal once a day for 7 days, between 1 µg and 50 µg/animal): dose dependent inhibition
cigarette smoke mediated increase in neutrophil and macrophage counts in BAL fluid ([1]; intranasal, 10, 30, 50 and 100 µg per mouse): significantly obtunded
% inhibition at 10 µM NK3 (NK3): 56%
% Inhibition LXRα (LXRα; 1 µM): 11.38%
% Inhibition LXRα (LXRα; 10 µM): 30.37%
Fold over hRORγ, LXRα (LXRα; vs RORg IC50 31.87 nM): > 313.7 fold
